# Results as given in patent publication US20200069609A1 (WIGEN BIOMEDICINE TECHNOLOGY (SHANGHAI) CO., LTD., priority 2017, published 2020).
# Experiments:
# [1] = target: T1, GST-LC3B (Homo sapiens, UniProt Q9GZQ8); assay: Fluorescence polarization (FP) assay, GST-LC3B with FITC-labeled peptide; type: binding; conditions: GST-LC3B 180 nM, FITC-labeled peptide 18 nM
# T1 construct: This fusion protein was used directly in the fluorescence polarization assay; made in house
# Description: (§1) GST-LC3B (1-125) (SEQ ID NO: 2) and each mutant protein were expressed by IPTG induction in DE3 competent cells at 16° C. After collecting and resuspending DE3 competent cells, the cells were sonicated and centrifuged. The resulted supernatant was hanged on the column (GSTrap FF, GE), followed by eluting with glutathione-containing eluant, and then the target protein was produced by gel filtration chromatography. This fusion protein was used directly in the fluorescence polarization assay. The proteins used in the protein thermal shift assay, mass spectrometry, and protein crystallization experiments were produced by PP enzyme or thrombin digestion and the following gel filtration chromatography to the GST-fusion protein obtained by the above method.
# Recombinant protein GST-LC3B (final concentration 180 nM) (SEQ ID NO: 2) and N-terminal FITC-labeled peptide (SEQ ID NO: 5, final concentration 18 nM) were placed in FP buffer solution (50 mM HEPES pH 7.5, 0.1 mg/ml BSA and 1 mM DTT), into which the compound gradually diluted by the FP buffer was added, then the resulted mixture was incubated in dark at 25° C. Fluorescence polarization values were monitored (PerkinElmer Envision, the wavelength of the […]) and the IC50 values were calculated by the GraphPad Prism 6.0 program.
# Representation of the IC50 value of the compounds: “[…]<IC50≤1 mM” is considered as having low activity (+) against LC3B. “15 μM<<IC50≤100 μM” of the compound is considered as having moderate activity (++) against LC3B. “3 μM<IC50≤15 μM” is considered as having high activity (+++) against LC3B. “IC50≤3 μM” is considered as having higher activity (++++) against LC3B.
# [2] = target: T2, LC3B (1-125) (Homo sapiens, UniProt Q9GZQ8); assay: Protein thermal shift assay; type: binding; conditions: protein 4 μM, compound 40 μM
# T2 construct: GST (N, cleaved yes); made in house
# Description: as §1
# (§2) The protein thermal shift assay is used to test the effect of compounds on the thermodynamic stability of proteins via the Quant Studio 6 Flex Real-Time PCR system. Protein LC3B (1-125) (SEQ ID NO: 3) and each mutant protein (SEQ ID NO: 7-15) (final concentration 4 μM), environmentally sensitive dye (5×SYPRO orange, Invitrogen) and compound (final concentration 40 μM) were mixed in the buffer solution (50 mM HEPES pH 7.5, 1 mM DTT) to a total volume of 20 μL. The sample was heated from 25° C. to 95° C. with a heating rate of 3%. Changes in fluorescence intensity were monitored and each melting temperature (Tm), represented by AT in the unit of ° C., was calculated by Protein Thermal Shift Software 1.1 (ABI).
# [3] = target: T2, LC3B (1-125); assay: Mass spectrometry of LC3B incubated with compound; conditions: trypsin digest, b and y type ions
# Description: For further verifying the covalent binding, LC3B (1-125) (SEQ ID NO: 3) protein was separately incubated with compounds B, C and D for mass spectrometry.
# After incubating the compound and protein for a given period of time, the product was separated by gel electrophoresis, and the protein having an appropriate size was digested by trypsin. The resulting polypeptide was dissolved and loaded onto a C18 reverse-phase column coupled to an EASY-nLC 1000 system. The polypeptide was eluted to perform mass spectrometry and Mascot search.
# [4] = tested on: LC3B mutants K8A, K30A, K39A, K42A, K51A, K65A, K103A, K122A; assay: Protein thermal shift assay on lysine-to-alanine mutants other than K49A; type: binding, human; conditions: all lysine-to-alanine mutants except K49A; protein 4 μM, compound 40 μM
# Description: as §2
# (§3) LC3B totally has 9 lysines, and for investigating the site selectivity of Compound A, all the 9 lysines were mutated to alanine (K8A, K30A, K39A, K42A, K49A, K51A, K65A, K103A, K122A; SEQ ID NO:7-15).
# [5] = target: T3, LC3B K49A mutant (Homo sapiens, UniProt Q9GZQ8, K49A); assay: Protein thermal shift assay on K49A mutant; type: binding
# T3 construct: GST (N, cleaved yes); made in house
# Description: as §2, §3
# [6] = target: T4, LC3B (2-119) (Homo sapiens, UniProt Q9GZQ8); assay: Crystal complex structure of LC3B protein and small molecule; conditions: crystal soaked with compound 1-5 mM
# T4 construct: GST (N, cleaved yes); made in house
# Description: A vacant protein crystal of LC3B (2-119) (SEQ ID NO: 4) was obtained by the sit-drop method, and then the crystal was taken out and soaked in a bath containing Compound A with a final concentration of 1-5 mM. The diffraction data were collected at the 19U1 line station of Shanghai Synchrotron Radiation Facility. And the diffraction data were integrated by XDS software and then compressed by Aimless module in CCP4. The LC3B protein structure with a PDB number of 3VTU was used as a template to perform molecular replacement by Phaser module to obtain the initial phase information, and then final refinement was performed by PHENIX and COOT.
# [7] = tested on: Hela cells; assay: Immunofluorescence staining of autophagosomes in Hela cells; type: cell-based; conditions: 30 μM or 100 μM for 12 h, then serum-free starvation 24 hours; compared with control group
# Description: For further investigating the effects of compounds on cell autophagosomes, Hela cells were seeded onto glass coverslips in 6-well plate and cultured until the cells being in good conditions, which were treated with 30 μM or 100 μM of Compound B for 12 h, then replaced to a serum-free medium and starved for 24 hours. The cells were pre-cooled for 10 minutes, then punched with 0.2% Triton X-100 and stood at room temperature for 10 minutes. Next, the cells were blocked with PBS containing 2.5% BSA and incubated overnight with a 4 degree anti-LC3B primary antibody, after which the primary antibody was recognized with a fluorescent secondary antibody, the nuclei were stained with DAPI and photographed under a microscope.
Compound,"IC50 ([1]; Table 2, comparative compounds)","ΔT (melting temperature shift) ([2]; Table 2, comparative compounds)","IC50 ([1]; Table 1, 25° C.)",ΔT (melting temperature shift) ([2]; Table 1),other results
"CCOc1c(I)cc(/C=N\Nc2ccc(C(=O)O)cc2)cc1OC [compound 3, reference compound]",28 µM,2.1 °C,,,
"CCNC(=S)N1CCN(CCNC=C2C(=O)CC(c3ccccc3)CC2=O)CC1 (stereo not drawn) [F, 5-phenyl-2-(((2-(4-(ethyl-aminothiocarbonyl)piperazin-1-yl)ethyl)amino)methylene) cyclohexane-1,3-dione]",,,6.54 µM,,
"COc1ccc(C2CC(=O)C(=CN(C)C)C(=O)C2)cc1 (stereo not drawn) [Compound D, 2-((Dimethylamino)methyl-ene)-5-(4-methoxyphenyl) cyclohexane-1,3-dione]",,,1.46 µM,10.82 °C,covalent modification of LC3B by mass spectrometry [3]: covalently modified the lysine at position 49 in LC3B
"5-phenyl-2- (((2-(4-(benzoyl) piperazin-1-yl) ethyl)amino) methylene) cyclohexane-1,3- dione [G]",,,4.83 µM,9.83 °C,
"2-((Dimethyl amino)methyl- ene)-5-(tlhio- phen-2-yl)cyclo- hexane-1,3- dione [Compound A]",,,1.56 µM,10.37 °C,thermal shift of LC3B mutants [4]: significant thermal shift; site selectivity for lysine at position 49 in LC3B ([5]; concluded from thermal shift of the 9 lysine mutants): selectively modify the lysine at position 49; covalent linkage in crystal complex [6]: covalently linked to the lysine residue (ε-amino group) at position 49 in LC3B
"O=C1CC(c2cccc3[nH]ccc23)CC(=O)C1=CO (stereo not drawn) [Compound I, 2-(hydroxy-methylene)-5-(1H-indol-4-yl)cyclohexane-1,3-dione]",,,0.51 µM,13.4 °C,covalent linkage in crystal complex [6]: covalently linked to the lysine residue (ε-amino group) at position 49 in LC3B
"Cc1ccc(C(=O)O)c(C(=O)Nc2ccc(-c3nc4ccc(C)cc4s3)cc2)c1 [compound 2, reference compound]",50 µM,0 °C,,,
Cc1ccc(NC(=O)CN2CCN(CCNC=C3C(=O)CC(c4ccccc4)CC3=O)CC2)cc1 (stereo not drawn) [E],,,5 µM,10.21 °C,
Cc1ccc(C2CC(=O)C(=CNCCN3CCN(C(=O)C(C)C)CC3)C(=O)C2)cc1 (stereo not drawn) [H],,,5 µM,,
"Cc1cc(NS(=O)(=O)c2ccc(NC(=O)c3ccc(C(=O)Nc4ccc(S(=O)(=O)Nc5cc(C)on5)cc4)cc3)cc2)no1 [compound 4, reference compound]",28 µM,1.8 °C,,,
"CC1=CCC(C(=O)O)C(C(=O)Nc2ccc(-c3nc4ccc(C)cc4s3)cc2)C1 (stereo not drawn) [compound 1, reference compound]",46 µM,0 °C,,,
"NC=C1C(=O)CC(c2ccccc2)CC1=O (stereo not drawn) [Compound C, 2-(aminomethyl-ene)-5-phenyl-cyclohexane-1,3-dione]",,,28.8 µM,2.87 °C,covalent modification of LC3B by mass spectrometry [3]: covalently modified the lysine at position 49 in LC3B
"Cc1ccc2c(C)c(C(=O)Nc3ccc(S(=O)(=O)Nc4onc(C)c4C)cc3)oc2c1 [compound 6, reference compound]",47 µM,0 °C,,,
"LBP2: positive control polypeptide, LBP2 (SEQ ID NO: 6) (GGDDDWTHLSSKEVD; LBP2) [reference compound]",,,,,"thermal shift of LC3B mutants [4]: significant heat shift; thermal shift of LC3B K49A mutant ([5]; K49A mutant, protein 4 μM, compound 40 μM): significant heat shift"
Cc1ccc(NC(=O)CN2CCN(CCNCC3C(=O)CC(c4ccc(C)cc4)CC3=O)CC2)cc1 (stereo not drawn) [Compound B],,,,,cell autophagosomes (anti-LC3B immunofluorescence) [7]: cell autophagosomes accumulated
